Data published in patent US20150231067A1, “METHOD AND COMPOSITION FOR TREATING HYPERGLYCEMIA” (MannKind Corporation, priority 2012, published 2015).

How the values were obtained:
male ZDF rats = assay: Food consumption after oxyntomodulin/FDKP powder; format: in vivo, rat; conditions: 0.15-0.9 mg oxyntomodulin as 30% powder, rats fasted 24 hr
Procedure: Male ZDF rats (10/group) were assigned to one of four groups.
Rats were allowed to eat after receiving the experimental dose. A predetermined amount of food was given to the rats and the amount of food the rats consumed was measured at various times after the start of the experiment.

[1] = tested on: healthy adult male subjects; assay: Phase 1a trial of GLP-1/FDKP inhalation powder: insulin, glucose and glucagon response; format: in vivo, human; conditions: 1.5 mg GLP-1; two of the six subjects; value that defines hypoglycemia
Excerpt: Dropouts were not replaced. These dosages assumed a body mass of 70 kg.

[2] = tested on: healthy adult male subjects
Procedure: Additional pulmonary safety and pharmacokinetic parameters were also evaluated. Pulmonary safety as expressed by the incidence of pulmonary and other adverse events and changes in pulmonary function between Visit 1 (Screening) and Visit 3 (Follow-up) was studied. […] Clinical trial endpoints were based on a comparison of the following pharmacological and safety parameters determined in the trial subject population. Primary endpoints included the incidence and severity of reported AEs, including cough and dyspnea, nausea and/or vomiting, as well as changes from screening in vital signs, clinical laboratory tests and physical examinations.

[3] = literature evaluation; cited from earlier work
[4] = Deacon et al., cited from earlier work

oxyntomodulin
duration of significantly less food consumed than control rats (male ZDF rats): up to 6 hr

CC[C@H](C)[C@H](NC(=O)[C@H](Cc1ccccc1)NC(=O)[C@H](CCC(=O)O)NC(=O)[C@H](CCCCN)NC(=O)[C@H](C)NC(=O)[C@H](C)NC(=O)[C@H](CCC(N)=O)NC(=O)CNC(=O)[C@H](CCC(=O)O)NC(=O)[C@H](CC(C)C)NC(=O)[C@H](Cc1ccc(O)cc1)NC(=O)[C@H](CO)NC(=O)[C@H](CO)NC(=O)[C@@H](NC(=O)[C@H](CC(=O)O)NC(=O)[C@H](CO)NC(=O)[C@@H](NC(=O)[C@H](Cc1ccccc1)NC(=O)[C@@H](NC(=O)CNC(=O)[C@H](CCC(=O)O)NC(=O)[C@H](C)NC(=O)[C@@H](N)Cc1c[nH]cn1)[C@@H](C)O)[C@@H](C)O)C(C)C)C(=O)N[C@@H](C)C(=O)N[C@@H](Cc1c[nH]c2ccccc12)C(=O)N[C@@H](CC(C)C)C(=O)N[C@H](C(=O)N[C@@H](CCCCN)C(=O)NCC(=O)N[C@@H](CCCNC(=N)N)C(N)=O)C(C)C [GLP-1, GLP-1(7-36)amide]
glucose concentration lowered by GLP-1 [1]: below 3.5 mmol/L | time for plasma active GLP-1 to fall to the physiological range (after inhalation of GLP-1/FDKP powder): ≤ 9 min | metabolite peaks, intravenous compared to pulmonary administration (at comparable active concentrations): 8-9 fold greater | subjects reporting symptoms of nausea, profuse sweating or vomiting ([2]; all doses, pulmonary): None of the subjects | inhibition of gastric emptying ([2]; pulmonary dry powder, data not shown): lack inhibition of gastric emptying | active GLP-1 concentration in blood plasma above which profuse sweating, nausea and vomiting are typically observed [3]: exceed 100 pmol/L | degradation in the liver [4]: 45% | GLP-1 instantaneously metabolized in the vein ([4]; intravenous, pigs): 40% | GLP-1 metabolized in the deoxygenated blood in the lung ([4]; intravenous, pigs): 10% | extraction by the portal bed ([4]; intravenous, pigs): 20%
